One data set addresses E. coli gyrase (Escherichia coli, UniProt P0AES4). In words: E. coli gyrase supercoiling inhibition. It counts as biochemical.
The next data set addresses E. coli topoisomerase IV (Escherichia coli, UniProt P0AFI2). In words: E. coli topoisomerase IV decatenation inhibition. In kind it is biochemical.
Data set [1] deals with MDR Gram-negative and Gram-positive pathogens. Briefly: MIC.
The next data set relates to Neisseria gonorrhoeae. In words: MIC. As to conditions: IHMA/CARB-X isolates 1997 to 2021, N=90.
The target of the next data set is hERG K+ channel (Homo sapiens, UniProt Q12809). In words: hERG automated patch-clamp. In kind it is cell-based.
Chain of hERG K+ channel (Q12809 whole entry): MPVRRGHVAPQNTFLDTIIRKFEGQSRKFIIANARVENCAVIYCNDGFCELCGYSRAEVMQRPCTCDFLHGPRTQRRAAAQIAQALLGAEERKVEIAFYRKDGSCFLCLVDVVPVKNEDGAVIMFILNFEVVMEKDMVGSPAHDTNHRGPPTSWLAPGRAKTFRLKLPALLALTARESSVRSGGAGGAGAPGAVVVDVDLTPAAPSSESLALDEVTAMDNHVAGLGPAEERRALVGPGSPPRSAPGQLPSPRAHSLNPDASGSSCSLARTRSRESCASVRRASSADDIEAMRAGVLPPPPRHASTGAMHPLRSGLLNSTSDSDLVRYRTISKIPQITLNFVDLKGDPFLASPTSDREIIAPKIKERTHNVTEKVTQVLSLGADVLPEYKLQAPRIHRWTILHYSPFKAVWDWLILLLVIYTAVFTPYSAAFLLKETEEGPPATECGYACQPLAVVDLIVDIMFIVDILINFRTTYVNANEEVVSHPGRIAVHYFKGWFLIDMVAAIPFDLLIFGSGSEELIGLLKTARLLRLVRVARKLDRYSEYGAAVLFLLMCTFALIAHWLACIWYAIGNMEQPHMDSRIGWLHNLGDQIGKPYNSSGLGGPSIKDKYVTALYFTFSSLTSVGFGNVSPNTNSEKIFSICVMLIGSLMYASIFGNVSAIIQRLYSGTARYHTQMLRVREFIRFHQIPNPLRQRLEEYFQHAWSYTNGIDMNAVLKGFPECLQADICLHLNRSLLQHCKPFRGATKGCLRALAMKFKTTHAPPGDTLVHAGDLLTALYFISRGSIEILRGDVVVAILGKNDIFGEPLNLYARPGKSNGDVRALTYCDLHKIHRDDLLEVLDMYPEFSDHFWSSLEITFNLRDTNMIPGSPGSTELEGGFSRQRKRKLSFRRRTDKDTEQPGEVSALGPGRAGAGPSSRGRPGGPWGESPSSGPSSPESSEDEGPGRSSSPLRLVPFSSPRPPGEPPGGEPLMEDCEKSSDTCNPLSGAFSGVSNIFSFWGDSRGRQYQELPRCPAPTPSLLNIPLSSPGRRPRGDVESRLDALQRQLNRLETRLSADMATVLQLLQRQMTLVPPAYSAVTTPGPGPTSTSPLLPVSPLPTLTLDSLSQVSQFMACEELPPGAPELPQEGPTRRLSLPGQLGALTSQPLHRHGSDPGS

Converted amounts (≈) assume the structure as drawn.

Chain of E. coli topoisomerase IV (P0AFI2 whole entry): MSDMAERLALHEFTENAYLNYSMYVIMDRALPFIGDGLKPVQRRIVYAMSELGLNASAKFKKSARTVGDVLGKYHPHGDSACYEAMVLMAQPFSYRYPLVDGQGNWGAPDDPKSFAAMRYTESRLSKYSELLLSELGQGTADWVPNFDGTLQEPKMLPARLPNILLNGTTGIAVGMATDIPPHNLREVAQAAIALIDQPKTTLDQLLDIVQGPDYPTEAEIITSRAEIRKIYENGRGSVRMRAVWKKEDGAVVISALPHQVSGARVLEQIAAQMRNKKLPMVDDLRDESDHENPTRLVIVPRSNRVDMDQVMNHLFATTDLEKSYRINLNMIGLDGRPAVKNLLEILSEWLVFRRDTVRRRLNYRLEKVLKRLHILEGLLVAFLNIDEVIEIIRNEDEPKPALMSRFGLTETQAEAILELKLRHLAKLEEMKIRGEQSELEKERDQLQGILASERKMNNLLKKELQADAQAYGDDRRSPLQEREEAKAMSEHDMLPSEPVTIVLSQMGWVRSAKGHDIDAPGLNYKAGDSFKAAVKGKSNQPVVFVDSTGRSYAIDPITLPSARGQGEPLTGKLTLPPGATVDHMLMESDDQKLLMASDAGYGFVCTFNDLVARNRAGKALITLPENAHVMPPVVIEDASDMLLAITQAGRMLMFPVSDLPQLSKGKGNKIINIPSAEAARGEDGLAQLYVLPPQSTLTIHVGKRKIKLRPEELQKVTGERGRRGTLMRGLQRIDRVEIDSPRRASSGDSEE
Chain of E. coli topoisomerase IV (P20083 whole entry partner): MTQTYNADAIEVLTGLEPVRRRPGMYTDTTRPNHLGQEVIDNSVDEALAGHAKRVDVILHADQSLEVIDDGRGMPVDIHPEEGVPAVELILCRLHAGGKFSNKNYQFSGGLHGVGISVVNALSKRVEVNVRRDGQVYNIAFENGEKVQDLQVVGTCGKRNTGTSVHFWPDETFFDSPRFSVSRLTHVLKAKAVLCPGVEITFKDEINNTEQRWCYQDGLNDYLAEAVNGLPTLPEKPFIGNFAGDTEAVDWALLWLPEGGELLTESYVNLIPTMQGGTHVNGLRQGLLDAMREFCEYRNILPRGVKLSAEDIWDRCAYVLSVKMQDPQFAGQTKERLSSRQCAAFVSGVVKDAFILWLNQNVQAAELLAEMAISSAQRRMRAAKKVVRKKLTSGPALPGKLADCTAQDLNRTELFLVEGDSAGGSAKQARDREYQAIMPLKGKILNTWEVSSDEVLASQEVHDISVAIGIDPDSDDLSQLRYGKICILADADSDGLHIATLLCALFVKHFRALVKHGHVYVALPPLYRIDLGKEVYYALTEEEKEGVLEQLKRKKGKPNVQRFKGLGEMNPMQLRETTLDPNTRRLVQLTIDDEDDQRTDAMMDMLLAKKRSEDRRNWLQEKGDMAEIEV
Chain of E. coli gyrase (P0AES4 whole entry): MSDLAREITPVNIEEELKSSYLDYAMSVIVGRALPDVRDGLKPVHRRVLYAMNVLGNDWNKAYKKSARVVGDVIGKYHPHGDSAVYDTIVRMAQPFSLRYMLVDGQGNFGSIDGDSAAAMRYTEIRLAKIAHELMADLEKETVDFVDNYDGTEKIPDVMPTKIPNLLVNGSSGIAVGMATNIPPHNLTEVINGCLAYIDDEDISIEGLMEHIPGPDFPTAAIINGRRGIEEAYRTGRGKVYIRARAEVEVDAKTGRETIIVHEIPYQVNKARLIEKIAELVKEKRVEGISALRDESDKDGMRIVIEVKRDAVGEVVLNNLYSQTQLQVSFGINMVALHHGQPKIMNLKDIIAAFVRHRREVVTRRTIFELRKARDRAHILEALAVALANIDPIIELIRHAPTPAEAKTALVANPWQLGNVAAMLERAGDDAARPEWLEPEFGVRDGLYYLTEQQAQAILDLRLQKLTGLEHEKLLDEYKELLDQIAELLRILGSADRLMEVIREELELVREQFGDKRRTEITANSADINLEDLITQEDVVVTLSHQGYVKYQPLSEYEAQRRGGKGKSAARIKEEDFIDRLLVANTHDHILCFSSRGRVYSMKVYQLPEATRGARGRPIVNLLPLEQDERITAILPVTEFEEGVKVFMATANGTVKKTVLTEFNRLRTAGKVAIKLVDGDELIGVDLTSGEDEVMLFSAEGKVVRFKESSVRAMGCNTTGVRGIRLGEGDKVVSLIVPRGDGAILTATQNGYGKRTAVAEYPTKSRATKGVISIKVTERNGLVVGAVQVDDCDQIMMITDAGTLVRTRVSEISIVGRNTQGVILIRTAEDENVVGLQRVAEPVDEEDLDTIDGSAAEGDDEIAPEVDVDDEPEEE

For the compound `CN1C(=O)Cc2ccc(F)c(CCNCC[C@H]3CN(c4ccc5c(n4)NC(=O)CO5)C(=O)O3)c21` [Compound 3, 6-[(5S)−5-[2-[[2-(6-fluoro-2,3-dihydro-1-methyl-2-oxo-1H-indol-7-yl)ethyl]amino]ethyl]−2-oxo-3-oxazolidinyl]−2H-pyrido[3,2-b]−1,4-oxazin-3(4H)-one], the “improvement in gyrase supercoiling and topoIV decatenation IC50 over compound 1” value on E. coli gyrase is on record as over 100 fold. Moreover, the IC50 (in general, the concentration that inhibits the measured activity by half) against E. coli topoisomerase IV was 0.36 µM. `CN1C(=O)Cc2ccc(F)c(CCNC[C@H]3CN(c4ccc5c(n4)NC(=O)CO5)C(=O)O3)c21` [Compound 4, (S)−6-(5-(((2-(6-fluoro-1-methyl-2-oxoindolin-7-yl)ethyl)amino)methyl)−2-oxooxazolidin-3-yl)−2H-pyrido[3,2-b] [1,4] oxazin-3(4H)-one]: the half-maximal inhibitory concentration (IC50) against E. coli gyrase is 0.036 µM; against E. coli topoisomerase IV, 0.057 µM. As for `NCCCC1CN(c2ccc3c(n2)NC(=O)CO3)C(=O)O1` (stereo not drawn) [Compound 1, 6-[5-(3-Aminopropyl)−2-oxo-3-oxazolidinyl]−2H-pyrido[3,2-b]−1,4-oxazin-3(4H)-one], in data set [1], the MIC (commonly the lowest concentration found to suppress growth) was 80 to 160 mg/L (≈ 274 to 547 µM). The IC50 stood at 13.2 µM on E. coli gyrase and 27 µM against E. coli topoisomerase IV. For the compound `CO/N=C(\C(=O)N[C@@H]1C(=O)N2C(C(=O)O)=C(CSc3nc(=O)c(=O)[nH]n3C)CS[C@H]12)c1csc(N)n1` [Ceftriaxone], the MIC90 (in general, the lowest concentration that inhibits either 90% of growth or 90% of the strains tested, depending on the study) against Neisseria gonorrhoeae came to 0.06 mg/L (≈ 0.108 µM). Regarding `Cn1c(=O)cnc2ccc(F)c(CCNC[C@H]3CN(c4cnc5c(n4)NC(=O)CO5)C(=O)O3)c21` [Compound 7, 6-[(5S)−5-[[[2-(6-Fluoro-3,4-dihydro-4-methyl-3-oxo-5-quinoxalinyl)ethyl]amino]methyl]−2-oxo-3-oxazolidinyl]−2H-pyrazino[2,3-b]−1,4-oxazin-3(4H)-one], the “increase in hERG IC50 vs compound 5” value on hERG K+ channel is reported as 4 fold.

Values taken from publication PMC11410943 (Nature Communications, 2024).
